Laboratory results from patent US6638973B2, “Taxane formulations” (FSU Research Foundation, Inc., priority 2000, dated 2003).

What follows are compounds tested on HCT116 cells (assay: In vitro cytotoxicity measured by the cell colony formation assay). Conditions: HCT116 cells, 72 h incubation with drug, colonies counted after 7 days; ID50 = drug concentration producing 50% inhibition of colony formation; read-out: IN VITRO ID 50 (nm) HCT116.
Type: cell-based
Procedure: (§1) Four hundred cells (HCT116) were plated in 60 mm Petri dishes containing 2.7 mL of medium (modified McCoy's 5a medium containing 10% fetal bovine serum and 100 units/mL penicillin and 100 µg/mL streptomycin). The cells were incubated in a CO2 incubator at 37° C. for 5 h for attachment to the bottom of Petri dishes. The compounds identified in Example 2 were made up fresh in medium at ten times the final concentration, and then 0.3 mL of this stock solution was added to the 2.7 mL of medium in the dish. The cells were then incubated with drugs for 72 h at 37° C. At the end of incubation the drug-containing media were decanted, the dishes were rinsed with 4 mL of Hank's Balance Salt Solution (HBSS), 5 mL of fresh medium was added, and the dishes were returned to the incubator for colony formation. The cell colonies were counted using a colony counter after incubation for 7 days.
as §1, with “Example 7” for “Example 2”
as §1, with “Example 22” for “Example 2”
as §1, with “Example 27” for “Example 2”
Four hundred cells (HCT116) were plated in 60 mm Petri dishes containing 2.7 mL of medium (modified McCoy's 5a medium containing 10% fetal bovine serum and 100 units/mL penicillin and 100 µg/mL streptomycin). The cells were incubated in a CO2 incubator at 37° C. for 5 h for attachment to the bottom of Petri dishes. […]

| SMILES | IC50 [nM] |
| --- | --- |
| CC(=O)O[C@H]1C[C@H]2OC[C@@]2(OC(C)=O)C2[C@H](OC(=O)c3ccccc3)[C@]3(O)C[C@H](OC(=O)[C@H](O)[C@@H](NC(=O)OCC(C)C)c4ccsc4)C(C)=C([C@@H](O)C(=O)[C@@]21C)C3(C)C (some centres unmarked) [Compound 4515] | < 10 |
| CCOC(=O)O[C@H]1C(=O)[C@@]2(C)C([C@H](OC(=O)c3ccccc3)[C@]3(O)C[C@H](OC(=O)[C@H](O)[C@@H](NC(=O)OC(C)(C)C)C(C)C)C(C)=C1C3(C)C)[C@]1(OC(C)=O)CO[C@@H]1C[C@@H]2O (some centres unmarked) [Compound 1767] | < 10 |
| CCOC(=O)O[C@H]1C(=O)[C@@]2(C)C([C@H](OC(=O)c3ccccc3)[C@]3(O)C[C@H](OC(=O)[C@H](O)[C@H](C=C(C)C)NC(=O)OC(C)(C)C)C(C)=C1C3(C)C)[C@]1(OC(C)=O)CO[C@@H]1C[C@@H]2O (some centres unmarked) [Compound 1781] | < 1 |
| CCOC(=O)O[C@H]1C(=O)[C@@]2(C)C([C@H](OC(=O)c3ccccc3)[C@]3(O)C[C@H](OC(=O)[C@H](O)[C@@H](NC(=O)OC(C)(C)C)c4ccc([N+](=O)[O-])cc4)C(C)=C1C3(C)C)[C@]1(OC(C)=O)CO[C@@H]1C[C@@H]2O (some centres unmarked) [Compound 1866] | < 1 |
| CCOC(=O)O[C@H]1C(=O)[C@@]2(C)C([C@H](OC(=O)c3ccccc3)[C@]3(O)C[C@H](OC(=O)[C@H](O)[C@@H](NC(=O)c4ccncc4)c4cccs4)C(C)=C1C3(C)C)[C@]1(OC(C)=O)CO[C@@H]1C[C@@H]2O (some centres unmarked) [Compound 3393] | > 50 |

Same assay, conditions: HCT116 colony formation; 72 h drug incubation, colonies counted after 7 days; Example 5, C-7 ester/C-10 hydroxy taxanes; read-out: IN VITRO ID 50 (nm) HCT116

| SMILES | IC50 [nM] |
| --- | --- |
| CCCC(=O)O[C@H]1C[C@H]2OC[C@@]2(OC(C)=O)C2[C@H](OC(=O)c3ccccc3)[C@]3(O)C[C@H](OC(=O)[C@H](O)[C@@H](NC(=O)OC=C(C)C)c4ccco4)C(C)=C([C@@H](O)C(=O)[C@@]21C)C3(C)C (some centres unmarked) [Compound 6181] | < 1 |
| CC(=O)O[C@@]12CO[C@@H]1C[C@H](OC(=O)CC(C)C)[C@@]1(C)C(=O)[C@H](O)C3=C(C)[C@@H](OC(=O)[C@H](O)[C@@H](NC(=O)OC=C(C)C)c4ccco4)C[C@@](O)([C@@H](OC(=O)c4ccccc4)C12)C3(C)C (some centres unmarked) [Compound 6131] | < 1 |
| CCC(=O)O[C@H]1C[C@H]2OC[C@@]2(OC(C)=O)C2[C@H](OC(=O)c3ccccc3)[C@]3(O)C[C@H](OC(=O)[C@H](O)[C@@H](NC(=O)OC(C)(C)CC)c4ccco4)C(C)=C([C@@H](O)C(=O)[C@@]21C)C3(C)C (some centres unmarked) [Compound 6212] | < 1 |
| CCCC(=O)O[C@H]1C[C@H]2OC[C@@]2(OC(C)=O)C2[C@H](OC(=O)c3ccccc3)[C@]3(O)C[C@H](OC(=O)[C@H](O)[C@@H](NC(=O)OC(C)(C)C)c4ccoc4)C(C)=C([C@@H](O)C(=O)[C@@]21C)C3(C)C (some centres unmarked) [Compound 4394] | < 1 |
| CCC(=O)O[C@H]1C[C@H]2OC[C@@]2(OC(C)=O)C2[C@H](OC(=O)c3ccccc3)[C@]3(O)C[C@H](OC(=O)[C@H](O)[C@@H](NC(=O)OCC(C)C)c4ccoc4)C(C)=C([C@@H](O)C(=O)[C@@]21C)C3(C)C (some centres unmarked) [Compound 4787] | < 10 |
| CCCC(=O)O[C@H]1C[C@H]2OC[C@@]2(OC(C)=O)C2[C@H](OC(=O)c3ccccc3)[C@]3(O)C[C@H](OC(=O)[C@H](O)[C@@H](NC(=O)c4cccs4)c4cccs4)C(C)=C([C@@H](O)C(=O)[C@@]21C)C3(C)C (some centres unmarked) [Compound 4454] | < 1 |

Same assay, conditions: HCT116 colony formation; 72 h drug incubation, colonies counted after 7 days; Example 10, C-10 ester/C-7 hydroxy taxanes; read-out: IN VITRO ID 50 (nm) HCT116

| SMILES | IC50 [nM] |
| --- | --- |
| C/C=C/C(=O)N[C@@H](c1ccco1)[C@@H](O)C(=O)O[C@H]1C[C@@]2(O)[C@@H](OC(=O)c3ccccc3)C3[C@](C)(C(=O)[C@H](OC(=O)C4CC4)C(=C1C)C2(C)C)[C@@H](O)C[C@H]1OC[C@@]31OC(C)=O (some centres unmarked) [Compound 3971] | < 1 |
| CC(=O)O[C@@]12CO[C@@H]1C[C@H](O)[C@@]1(C)C(=O)[C@H](OC(=O)C=C(C)C)C3=C(C)[C@@H](OC(=O)[C@H](O)[C@@H](NC(=O)OC(C)(C)C)c4ccsc4)C[C@@](O)([C@@H](OC(=O)c4ccccc4)C12)C3(C)C (some centres unmarked) [Compound 2511] | < 1 |
| CC(=O)O[C@@]12CO[C@@H]1C[C@H](O)[C@@]1(C)C(=O)[C@H](OC(=O)C3CC3)C3=C(C)[C@@H](OC(=O)[C@H](O)[C@H](C=C(C)C)NC(=O)c4ccccc4)C[C@@](O)([C@@H](OC(=O)c4ccccc4)C12)C3(C)C (some centres unmarked) [Compound 0890] | < 1 |
| CCCC(=O)O[C@H]1C(=O)[C@@]2(C)C([C@H](OC(=O)c3ccccc3)[C@]3(O)C[C@H](OC(=O)[C@H](O)[C@@H](NC(=O)OC(C)(C)C)c4ccco4)C(C)=C1C3(C)C)[C@]1(OC(C)=O)CO[C@@H]1C[C@@H]2O (some centres unmarked) [Compound 0983] | < 1 |
| CCC(=O)O[C@H]1C(=O)[C@@]2(C)C([C@H](OC(=O)c3ccccc3)[C@]3(O)C[C@H](OC(=O)[C@H](O)[C@@H](NC(=O)OC(C)C)c4ccco4)C(C)=C1C3(C)C)[C@]1(OC(C)=O)CO[C@@H]1C[C@@H]2O (some centres unmarked) [Compound 3522] | < 1 |
| CCC(=O)O[C@H]1C(=O)[C@@]2(C)C([C@H](OC(=O)c3ccccc3)[C@]3(O)C[C@H](OC(=O)[C@H](O)[C@H](C=C(C)C)NC(=O)c4ccccc4)C(C)=C1C3(C)C)[C@]1(OC(C)=O)CO[C@@H]1C[C@@H]2O (some centres unmarked) [Compound 0625] | < 1 |
| CC(=O)O[C@@]12CO[C@@H]1C[C@H](O)[C@@]1(C)C(=O)[C@H](OC(=O)C(C)C)C3=C(C)[C@@H](OC(=O)[C@H](O)[C@@H](NC(=O)OC(C)(C)C)c4cccs4)C[C@@](O)([C@@H](OC(=O)c4ccccc4)C12)C3(C)C (some centres unmarked) [Compound 2287] | < 1 |
| CC(=O)O[C@@]12CO[C@@H]1C[C@H](O)[C@@]1(C)C(=O)[C@H](OC(=O)C3CC3)C3=C(C)[C@@H](OC(=O)[C@H](O)[C@@H](NC(=O)c4ccccc4)c4ccco4)C[C@@](O)([C@@H](OC(=O)c4ccccc4)C12)C3(C)C (some centres unmarked) [Compound 0908] | < 1 |
| C/C=C/C(=O)N[C@@H](c1ccoc1)[C@@H](O)C(=O)O[C@H]1C[C@@]2(O)[C@@H](OC(=O)c3ccccc3)C3[C@](C)(C(=O)[C@H](OC(=O)CCC)C(=C1C)C2(C)C)[C@@H](O)C[C@H]1OC[C@@]31OC(C)=O (some centres unmarked) [Compound 4919] | < 1 |
| CC(=O)OC12COC1CC(O)C1(C)C(=O)C(OC(=O)c3cccs3)C3=C(C)C(OC(=O)C(O)C(NC(=O)OC(C)(C)C)C4CCC4)CC(O)(C(OC(=O)c4ccccc4)C21)C3(C)C (centres unmarked) [Compound 1970] | < 10 |
| CCCC(=O)O[C@H]1C(=O)[C@@]2(C)C([C@H](OC(=O)c3ccccc3)[C@]3(O)C[C@H](OC(=O)[C@H](O)[C@@H](NC(=O)c4ccccc4)C4CC4)C(C)=C1C3(C)C)[C@]1(OC(C)=O)CO[C@@H]1C[C@@H]2O (some centres unmarked) [Compound 3482] | < 1 |
| CCC(=O)O[C@H]1C(=O)[C@@]2(C)C([C@H](OC(=O)c3ccccc3)[C@]3(O)C[C@H](OC(=O)[C@H](O)[C@@H](NC(=O)c4ccccc4)c4ccccc4)C(C)=C1C3(C)C)[C@]1(OC(C)=O)CO[C@@H]1C[C@@H]2O (some centres unmarked) [Compound 0748] | < 10 |
| CC(=O)OC12COC1CC(O)C1(C)C(=O)C(OC(=O)c3ccco3)C3=C(C)C(OC(=O)C(O)C(NC(=O)OC(C)(C)C)C(C)C)CC(O)(C(OC(=O)c4ccccc4)C21)C3(C)C (centres unmarked) [Compound 2181] | < 10 |
| CCC(=O)O[C@H]1C(=O)[C@@]2(C)C([C@H](OC(=O)c3ccccc3)[C@]3(O)C[C@H](OC(=O)[C@H](O)[C@@H](NC(=O)C=C(C)C)c4cccs4)C(C)=C1C3(C)C)[C@]1(OC(C)=O)CO[C@@H]1C[C@@H]2O (some centres unmarked) [Compound 4335] | < 1 |
| CCCC(=O)N[C@@H](c1cccs1)[C@@H](O)C(=O)O[C@H]1C[C@@]2(O)[C@@H](OC(=O)c3ccccc3)C3[C@](C)(C(=O)[C@H](OC(=O)C4CC4)C(=C1C)C2(C)C)[C@@H](O)C[C@H]1OC[C@@]31OC(C)=O (some centres unmarked) [Compound 3132] | < 1 |
